Laboratory results taken from ChEMBL document CHEMBL5518236, “Discovery of Clinical Candidate AZD5462, a Selective Oral Allosteric RXFP1 Agonist for Treatment of Heart Failure” (J Med Chem, 2024).
Blank lines part the entries; values can stand above or below the molecule they belong to.

Key:
[1] = Metabolic stability in human hepatocytes assessed as unbound intrinsic clearance measured per 10^6 viable cells/ml at 1 uM measured upto 120 mins by LC-MS/MS analysis; type: ADME, cell-based, Hepatocyte; details: 2 h
[2] = Protein binding in rat plasma assessed as fraction unbound at 5 uM measured after 18 hrs by LC-MS/MS analysis; type: ADME, cell-free; details: read-out: PPB
[3] = Metabolic stability in rat hepatocytes assessed as unbound intrinsic clearance measured per 10^6 viable cells/ml at 1 uM measured upto 120 mins by LC-MS/MS analysis; type: ADME, cell-based, Hepatocyte; details: 2 h
[4] = Half life in Han Wistar rat at 0.90 micromol/kg, iv by LC-MS/MS analysis; type: ADME, organism-based; details: in vivo, dose 0.9 µmol/kg
[5] = Clearance in Han Wistar rat at 0.90 micromol/kg, iv by LC-MS/MS analysis; type: ADME, organism-based; details: in vivo, dose 0.9 µmol/kg
[6] = Oral bioavailability in Han Wistar rat at 1.8 micromol/kg by LC-MS/MS analysis; type: ADME, organism-based; details: in vivo, 1.8 µmol/kg
[7] = Metabolic stability in human hepatocytes assessed as intrinsic clearance measured per 10^6 viable cells/ml at 1 uM measured upto 120 mins by LC-MS/MS analysis; type: ADME, cell-based, Hepatocyte; details: read-out: CLH
[8] = Volume of distribution at steady state in Han Wistar rat at 0.90 micromol/kg, iv by LC-MS/MS analysis; type: ADME, organism-based; details: in vivo, dose 0.9 µmol/kg, read-out: Vdss
[9] = Octanol/water partition coefficient, logD of the compound at pH 7.4 by shake flask method; type: physicochemical
[10] = biological target: T1, Relaxin receptor 1 (Rattus norvegicus, UniProt Q6R6I6); test: Agonist activity at rat RXFP1 expressed in CHO-K1 cells assessed as increase in cAMP level measured after 2 hrs by HTRF cAMP assay; type: functional, cell-based
T1 sequence (Q6R6I6 whole entry): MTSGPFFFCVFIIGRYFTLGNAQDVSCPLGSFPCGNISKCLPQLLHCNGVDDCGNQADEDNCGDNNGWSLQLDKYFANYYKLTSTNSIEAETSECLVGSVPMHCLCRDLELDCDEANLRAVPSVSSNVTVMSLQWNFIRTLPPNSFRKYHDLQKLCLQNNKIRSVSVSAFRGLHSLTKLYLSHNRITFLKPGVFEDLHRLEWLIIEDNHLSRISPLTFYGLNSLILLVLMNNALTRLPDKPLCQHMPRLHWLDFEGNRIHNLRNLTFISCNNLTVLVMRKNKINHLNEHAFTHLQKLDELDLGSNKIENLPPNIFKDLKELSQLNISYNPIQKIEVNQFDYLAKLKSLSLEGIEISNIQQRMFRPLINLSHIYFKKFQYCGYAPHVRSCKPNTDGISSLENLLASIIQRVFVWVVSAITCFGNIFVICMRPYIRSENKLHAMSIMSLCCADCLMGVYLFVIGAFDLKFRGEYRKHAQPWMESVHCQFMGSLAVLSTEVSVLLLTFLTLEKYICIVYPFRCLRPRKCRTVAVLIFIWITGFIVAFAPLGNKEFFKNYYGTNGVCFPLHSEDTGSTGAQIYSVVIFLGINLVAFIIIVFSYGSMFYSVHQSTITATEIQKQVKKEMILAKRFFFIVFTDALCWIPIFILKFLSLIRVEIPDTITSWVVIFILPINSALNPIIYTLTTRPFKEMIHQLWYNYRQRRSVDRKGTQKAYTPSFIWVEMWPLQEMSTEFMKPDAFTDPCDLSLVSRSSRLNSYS

[11] = Metabolic stability in human liver microsomes assessed as intrinsic clearance at 1 uM measured upto 30 mins by LC-MS/MS analysis; type: ADME, Microsome; details: read-out: CLH
[12] = Metabolic stability in human liver microsomes assessed as unbound intrinsic clearance at 1 uM measured upto 30 mins by LC-MS/MS analysis; type: ADME, Microsome; details: 0.5 h
[13] = Apparent permeability across apical to basolateral side in human Caco-2 cells at pH 7.4 by LC-MS/MS analysis; type: ADME, cell-based; details: Caco-2, pH 7.4
[14] = biological target: T2, Relaxin receptor 1 (Homo sapiens, UniProt Q9HBX9)
T2 sequence (Q9HBX9 whole entry): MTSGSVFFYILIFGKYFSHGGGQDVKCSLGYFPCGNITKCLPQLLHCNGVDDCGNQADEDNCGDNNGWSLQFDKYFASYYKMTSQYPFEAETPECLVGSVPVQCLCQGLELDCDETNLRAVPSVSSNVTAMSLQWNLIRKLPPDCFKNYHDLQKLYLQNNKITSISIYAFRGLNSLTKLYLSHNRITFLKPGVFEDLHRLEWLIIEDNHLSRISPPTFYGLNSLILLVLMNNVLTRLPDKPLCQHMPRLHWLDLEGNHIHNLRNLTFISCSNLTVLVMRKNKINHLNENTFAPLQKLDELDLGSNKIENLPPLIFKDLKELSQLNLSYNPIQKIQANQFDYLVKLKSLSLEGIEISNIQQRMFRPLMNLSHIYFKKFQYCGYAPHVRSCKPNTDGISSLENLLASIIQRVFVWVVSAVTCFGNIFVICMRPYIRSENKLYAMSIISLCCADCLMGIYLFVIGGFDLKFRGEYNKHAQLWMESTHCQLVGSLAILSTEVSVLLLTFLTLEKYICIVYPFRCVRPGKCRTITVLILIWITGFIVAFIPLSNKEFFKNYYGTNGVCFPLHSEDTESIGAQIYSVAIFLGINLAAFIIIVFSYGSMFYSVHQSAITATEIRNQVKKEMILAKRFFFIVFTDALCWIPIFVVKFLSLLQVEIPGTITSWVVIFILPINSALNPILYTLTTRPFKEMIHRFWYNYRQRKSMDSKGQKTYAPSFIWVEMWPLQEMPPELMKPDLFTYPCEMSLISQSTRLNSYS
Description: Agonist activity at human RXFP1 expressed in CHO cells assessed as increase in cAMP level measured after 2 hrs by HTRF cAMP assay

[15] = Efflux ratio of apparent permeability from basolateral side to apical side over apical side to basolateral side in human Caco-2 cells at pH 7.4 by LC-MS/MS analysis; details: Caco-2, pH 7.4
[16] = biological target: T2, Relaxin receptor 1; test: Agonist activity at human RXFP1 expressed in HEK293 cells co-expressing G-alphas assessed as cAMP production measured after 15 mins by BRET sensor assay
[17] = biological target: T2, Relaxin receptor 1; test: Agonist activity at human RXFP1 expressed in CHO-K1 cells assessed as dynamic mass redistribution (DMR) measured after 60 mins pretreated with PTX by G-protein coupling DMR assay
[18] = biological target: T2, Relaxin receptor 1; test: Agonist activity at human RXFP1 expressed in HEK293 cells assessed as cAMP production measured after 15 mins by BRET sensor assay
[19] = biological target: T2, Relaxin receptor 1; test: Agonist activity at human RXFP1 expressed in HEK293 cells coexpressing GRK2 assessed as beta-arrestin internalization by BRET assay relative to control
[20] = Protein binding in human plasma assessed as fraction unbound at 5 uM measured after 18 hrs by LC-MS/MS analysis; type: ADME, cell-free; details: read-out: PPB
[21] = biological target: T2, Relaxin receptor 1; test: Agonist activity at human RXFP1 expressed in HEK293 cells co-expressing G-alphaz assessed as cAMP production measured after 15 mins by BRET sensor assay
[22] = biological target: T2, Relaxin receptor 1; test: Agonist activity at human RXFP1 expressed in HEK293 cells assessed as ERK phosphorylation measured after 24 hrs by HTRF assay
[23] = biological target: T2, Relaxin receptor 1; test: Agonist activity at human RXFP1 expressed in CHO-K1 cells assessed as dynamic mass redistribution (DMR) measured after 60 mins by G-protein coupling DMR assay
[24] = biological target: T2, Relaxin receptor 1; test: Agonist activity at human RXFP1 expressed in CHO-K1 cells assessed as dynamic mass redistribution (DMR) measured after 60 mins pretreated with UBO-QIC by G-protein coupling DMR assay

fraction unbound at 18 h, 5 µM [2]: 0.101
half-life [4]: 1.4 h
clearance [5]: 59 mL/min/kg
bioavailability [6]: 17%
Vd [8]: 0.96 L/kg
logD [9]: 2.2
EC50 [10]: 10500 nM
microsomal CLint at 1 µM [11]: 4 µL/min/mg
CL free [12]: 4.7 µL/min/mg
Compound: COc1cc(C#N)c(O[C@H]2CC[C@@](C)(C(=O)O)CC2)cc1C(=O)N[C@@H]1[C@H]2CC[C@H](C2)[C@@H]1C(=O)NC12CC(F)(C1)C2
CL free [1]: 2.6 µL/min
CL free [3]: 11 µL/min
hepatocyte CLint at 1 µM [7]: 1.5 µL/min/1e6 cells

Papp A→B [13]: 81 ×10⁻⁶ cm/s
EC50 [14]: 39.8 nM
efflux ratio [15]: 6.8
logD [9]: 3
microsomal CLint at 1 µM [11]: 14 µL/min/mg
CL free [12]: 20 µL/min/mg
Compound: COc1cc(F)c(O[C@H]2CC[C@@](C)(C(=O)O)CC2)cc1C(=O)N[C@@H]1[C@H]2CC[C@H](C2)[C@@H]1C(=O)NCC(C)(C)C
CL free [1]: 4.3 µL/min
hepatocyte CLint at 1 µM [7]: 2.7 µL/min/1e6 cells

EC50 [16]: 0.316 nM
EC50 [17]: 0.02 nM
EC50 [18]: 0.0316 nM
EC50 [19]: 1.51 nM
fraction unbound at 18 h, 5 µM [20]: < 0.0023
EC50 [21]: 2.51 nM
EC50 [22]: 3.16 nM
logD [9]: 4.9
EC50 [23]: 0.0251 nM
microsomal CLint at 1 µM [11]: 61 µL/min/mg
EC50 [24]: 0.0251 nM
CL free [12]: 3.39 10^3uL/min/mg
Compound: COc1cc(F)c(O[C@H]2CC[C@@](C)(C(=O)O)CC2)cc1C(=O)N[C@@H]1[C@H]2CC[C@H](C2)[C@@H]1C(=O)Nc1ccc(F)c(S(F)(F)(F)(F)F)c1
CL free [1]: 2.1 10^3uL/min
hepatocyte CLint at 1 µM [7]: 21 µL/min/1e6 cells
